This passage reports EC50 results from patent publication US20250195511A1, “INDAZOLE DERIVATIVES USEFUL AS INHIBITORS OF NOD-LIKE RECEPTOR PROTEIN 3” (Merck Sharp & Dohme LLC, priority 2023, published 2025).

pEC50: −log10 of the molar value.

This assay deals with NLRP3 inflammasome. The assay can be described thus: NLRP3 inflammasome activation: ASC-SPECK formation in gramicidin-stimulated THP-1 cells. As to conditions: PMA-treated human monocytic THP-1 cells, compound 1 h before 12.5 μg/ml gramicidin, 3-hour treatment. It is filed as cell-based. An excerpt: Activation of the canonical NLRP3 inflammasome requires two steps, priming and activation. A priming signal such as a pathogen activated molecular patterns (PAMPs) or danger-activated molecular patterns (DAMPs) are recognized by Toll-like receptors leads to nuclear factor kappa B (NF-KB)-mediated signaling. […] The second step is activation which induces oligomerization of NLRP3 and subsequent assembly of NLRP3, apoptosis-associated speck-like protein containing a CARD (ASC), and procaspase-1 into an inflammasome complex. This triggers the transformation of procaspase-1 to caspase-1, and the production and secretion of mature IL-1β and IL-18 (Kim et al., J. Inflamm. 2015, 12, 41; Ozaki et al., J. Inflamm. Res. 2015, 8, 15-27; Rabeony et al., Eur. J. Immunol. 2015, 45, 2847). During inflammasome complex assembly, the oligomerization of NLRP3 triggers the nucleation of ASC and an event commonly referred to as “ASC SPECK” formation, as it is identified in the cell as a discrete puncta within the cell after staining and visualization of ASC using common immunocytochemical methods.
The ability of compounds to inhibit NLRP3 inflammasome activation was determined in vitro by monitoring formation of the ASC-SPECK in human monocytic THP-1 cells after stimulation. THP-1 cells (ATCC catalog #TIB-202) were maintained in complete growth media containing Roswell Park Memorial Institute RPMI (ATCC catalog #30-2001), 10% heat inactivated fetal bovine serum, 1× penicillin/streptomycin and 0.05 mM 2-mercaptoethanol. At the start of the assay, undifferentiated THP-1 cells were plated at a density of 20,000 cells per well in a 384-well plate (Poly-D-lysine coated Cell Carrier Ultra microplate, Perkin Elmer catalog #6057500) in complete growth media supplemented with 10 ng/ml phorbol 12-myristate 13-acetate (PMA; Sigma catalog #P8139), and then incubated overnight. The next day, media was replaced with assay media (RPMI (Gibco catalog #11875-093), 0.01% bovine serum albumin (BSA)). Compounds were serially diluted in DMSO and then added to wells one hour prior to the addition of 12.5 μg/ml Gramicidin (Enzo Lifescience, catalog #ALX-350-233-M005). All incubations were carried out at 37° C. (5% CO2/95% air). Following a 3-hour treatment with gramicidin, cells are fixed with 4% paraformaldehyde and stored at 4° C. until immunofluorescence staining.
Immunofluorescence staining: Anti-ASC antibody (MBL catalog #D086-3) was desalted and labeled with Alexa 488 antibody labeling kit (Thermo catalog #A20181) prior to use as described below. After fixation, the following steps were carried out at rt. Cells were first permeabilized with 0.3% polyethylene glycol tert-octylphenyl ether (Triton X-100) in phosphate-buffered saline (PBS) for 15 minutes and then incubated in blocking buffer containing 5% goat serum, 0.3% polyethylene glycol sorbitan monolaurate (Tween-20) and 0.03% sodium azide in PBS for 1 hour. Cells were stained with a mixture of ASC-Alexa 488 antibody (diluted 1:200 in blocking buffer) and nuclear stain DRAQ5 (1:5000 in blocking buffer, Thermo catalog #62251) in blocking buffer for 1 hour. Following a wash with 0.3% polyethylene glycol sorbitan monolaurate (Tween-20) in PBS, plates were imaged with an Opera Phenix High Content Screening System. The number of DRAQ5 positive cells containing ASC SPECKS were quantified in each well.
Data analysis: EC50 values were calculated by standard curve-fitting analysis using an internally developed program in TIBCO Spotfire software.

Where [1] appears, read: inhibition of ASC SPECK formation.
Where [2] appears, read: Homo sapiens, THP-1, inhibition of ASC SPECK formation.

What is called pEC50 is the EC50 on a negative log10 scale, so that one unit is a factor of ten. Regarding `CCN1CC(Cn2cc3ncc(-c4c(C)cc(C(F)(F)F)cc4O)nc3n2)CC1=O` (single isomer, unassigned) [Example 66, (R or S)-1-ethyl-4-((6-(2-hydroxy-6-methyl-4-(trifluoromethyl)phenyl)-2H-pyrazolo[3,4-b]pyrazin-2-yl)methyl)pyrrolidin-2-one], under setting [1], the pEC50 is 6.44. Regarding `CCN1CC(Cn2cc3ncc(-c4c(C)cc(C(F)(F)F)cc4O)nc3n2)CC1=O` (single isomer, unassigned) [Example 67, (S or R)-1-ethyl-4-((6-(2-hydroxy-6-methyl-4-(trifluoromethyl)phenyl)-2H-pyrazolo[3,4-b]pyrazin-2-yl)methyl)pyrrolidin-2-one], the negative logarithm of the EC50 (pEC50) under setting [1] was 8.15. Regarding `Cc1cc(C(F)(F)F)cc(O)c1-c1cnc2cn(C3CCc4nnn(C)c4C3)nc2n1` (single isomer, unassigned) [Example 68, (R or S)-3-methyl-2-(2-(1-methyl-4,5,6,7-tetrahydro-1H-benzo[d][1,2,3]triazol-6-yl)-2H-pyrazolo[3,4-b]pyrazin-6-yl)-5-(trifluoromethyl)phenol], under setting [1], the pEC50 was 7.40. The same measure, in the same setting: the figure for `Cc1cc(C(F)(F)F)cc(O)c1-c1cnc2cn(C3CCc4nnn(C)c4C3)nc2n1` (single isomer, unassigned) [Example 69, (S or R)-3-methyl-2-(2-(1-methyl-4,5,6,7-tetrahydro-1H-benzo[d][1,2,3]triazol-6-yl)-2H-pyrazolo[3,4-b]pyrazin-6-yl)-5-(trifluoromethyl)phenol] is 7.82. Same read-out and setting: the figure for `Cc1cc(C(F)(F)F)cc(O)c1-c1cnc2cn(C3CCc4nnc(C(F)(F)F)n4C3)nc2n1` (single isomer, unassigned) [Example 70, (R or S)-3-methyl-5-(trifluoromethyl)-2-(2-(3-(trifluoromethyl)-5,6,7,8-tetrahydro-[1,2,4]triazolo[4,3-a]pyridin-6-yl)-2H-pyrazolo[3,4-b]pyrazin-6-yl)phenol] is 7.92; for `Cc1cc(C(F)(F)F)cc(O)c1-c1cnc2cn(C3CCc4nnc(C(F)(F)F)n4C3)nc2n1` (single isomer, unassigned) [Example 71, (S or R)-3-methyl-5-(trifluoromethyl)-2-(2-(3-(trifluoromethyl)-5,6,7,8-tetrahydro-[1,2,4]triazolo[4,3-a]pyridin-6-yl)-2H-pyrazolo[3,4-b]pyrazin-6-yl)phenol] it is 6.70; for `CCc1nnc2n1CC(n1cc3ncc(-c4c(C)cc(C(F)(F)F)cc4O)nc3n1)CC2` (single isomer, unassigned) [Example 72, (R or S)-2-(2-(3-ethyl-5,6,7,8-tetrahydro-[1,2,4]triazolo[4,3-a]pyridin-6-yl)-2H-pyrazolo[3,4-b]pyrazin-6-yl)-3-methyl-5-(trifluoromethyl)phenol] it is 7.70.

For the molecule `CCc1nnc2n1CC(n1cc3ncc(-c4c(C)cc(C(F)(F)F)cc4O)nc3n1)CC2` (single isomer, unassigned) [Example 73, (S or R)-2-(2-(3-ethyl-5,6,7,8-tetrahydro-[1,2,4]triazolo[4,3-a]pyridin-6-yl)-2H-pyrazolo[3,4-b]pyrazin-6-yl)-3-methyl-5-(trifluoromethyl)phenol], the pEC50 under setting [1] is 6.85. The same measure, in the same setting: the figure for `Cc1cc(C(F)(F)F)cc(O)c1-c1cnc2cn(C3(C)CC(F)C3)nc2n1` (single isomer, unassigned) [Example 74, 2-(2-((1R,3R or 1S,3S)-3-fluoro-1-methylcyclobutyl)-2H-pyrazolo[3,4-b]pyrazin-6-yl)-3-methyl-5-(trifluoromethyl)phenol] is 7.18. The same measure, in the same setting: the figure for `Cc1cc(C(F)(F)F)cc(O)c1-c1cnc2cn(C3(C)CC(F)C3)nc2n1` (single isomer, unassigned) [Example 75, 2-(2-((1S,3S or 1R,3R)-3-fluoro-1-methylcyclobutyl)-2H-pyrazolo[3,4-b]pyrazin-6-yl)-3-methyl-5-(trifluoromethyl)phenol] is 6.58; for `Cc1cc(C(F)(F)F)cc(O)c1-c1cnc2cn(C34CC3COC4(C)C)nc2n1` (single isomer, unassigned) [Example 76, 2-(2-((1R,5R or 1S,5S)-2,2-dimethyl-3-oxabicyclo[3.1.0]hexan-1-yl)-2H-pyrazolo[3,4-b]pyrazin-6-yl)-3-methyl-5-(trifluoromethyl)phenol] it is 7.00.

For the molecule `Cc1cc(C(F)(F)F)cc(O)c1-c1cnc2cn(C34CC3COC4(C)C)nc2n1` (single isomer, unassigned) [Example 77, 2-(2-((1S,5S or 1R,5R)-2,2-dimethyl-3-oxabicyclo[3.1.0]hexan-1-yl)-2H-pyrazolo[3,4-b]pyrazin-6-yl)-3-methyl-5-(trifluoromethyl)phenol], under setting [1], the negative-log EC50 (pEC50) is 6.35. On to `Cc1cc(C(F)(F)F)cc(O)c1-c1cnc2cn(C3(C)CCOC3)nc2n1` (single isomer, unassigned) [Example 78, (S or R)-3-methyl-2-(2-(3-methyltetrahydrofuran-3-yl)-2H-pyrazolo[3,4-b]pyrazin-6-yl)-5-(trifluoromethyl)phenol], for which the pEC50 under setting [2] was 6.70. Consider `Cc1cc(C(F)(F)F)cc(O)c1-c1cnc2cn(C3(C)CCOC3)nc2n1` (single isomer, unassigned) [Example 79, (R or S)-3-methyl-2-(2-(3-methyltetrahydrofuran-3-yl)-2H-pyrazolo[3,4-b]pyrazin-6-yl)-5-(trifluoromethyl)phenol], for which the negative logarithm of the EC50 (pEC50) under setting [1] was 6.76. Still for that read-out and setting: the figure for `Cc1cc(C(F)(F)F)cc(O)c1-c1cnc2cn(CC3CC(=O)N(C(C)C)C3)nc2n1` (single isomer, unassigned) [Example 80, (R or S)-4-((6-(2-hydroxy-6-methyl-4-(trifluoromethyl)phenyl)-2H-pyrazolo[3,4-b]pyrazin-2-yl)methyl)-1-isopropylpyrrolidin-2-one] is 8.10. Still for that read-out and setting: the figure for `Cc1cc(C(F)(F)F)cc(O)c1-c1cnc2cn(CC3CC(=O)N(C(C)C)C3)nc2n1` (single isomer, unassigned) [Example 81, (S or R)-4-((6-(2-hydroxy-6-methyl-4-(trifluoromethyl)phenyl)-2H-pyrazolo[3,4-b]pyrazin-2-yl)methyl)-1-isopropylpyrrolidin-2-one] is 6.36. With `Cc1cc(C(F)(F)F)cc(O)c1-c1cnc2cn(C3CCP(C)(=O)CC3)nc2n1` (single isomer, unassigned) [Example 82, (1R,4R or 1S,4S)-4-(6-(2-hydroxy-6-methyl-4-(trifluoromethyl)phenyl)-2H-pyrazolo[3,4-b]pyrazin-2-yl)-1-methylphosphinane 1-oxide], under setting [2], the pEC50 is 6.72. Regarding `Cc1cc(C(F)(F)F)cc(O)c1-c1cnc2cn(C34COCC3C4)nc2n1` (single isomer, unassigned) [Example 83, 2-(2-((1R,5R or 1S,5S)-3-oxabicyclo[3.1.0]hexan-1-yl)-2H-pyrazolo[3,4-b]pyrazin-6-yl)-3-methyl-5-(trifluoromethyl)phenol], the negative logarithm of the EC50 (pEC50) under setting [1] was 7.96. On to `Cc1cc(C(F)(F)F)cc(O)c1-c1cnc2cn(C34COCC3C4)nc2n1` (single isomer, unassigned) [Example 84, 2-(2-((1S,5S or 1R,5R)-3-oxabicyclo[3.1.0]hexan-1-yl)-2H-pyrazolo[3,4-b]pyrazin-6-yl)-3-methyl-5-(trifluoromethyl)phenol], for which the negative-log EC50 (pEC50) under setting [1] is 7.22. On the same count and under the same terms, the figure for `Cc1cc(C(F)(F)F)cc(O)c1-c1cnc2cn([C@@H]3CCOC[C@@H]3C)nc2n1` (single isomer, unassigned) [Example 85, 3-methyl-2-(2-((3R,4R or 3S,4S)-3-methyltetrahydro-2H-pyran-4-yl)-2H-pyrazolo[3,4-b]pyrazin-6-yl)-5-(trifluoromethyl)phenol] is 7.38.
